Measured values taken from article PMC3832475, “Discovery of Dihydrochalcone as Potential Lead for Alzheimer’s Disease: In Silico and In Vitro Study” (PLoS ONE, 2013).

Target: T1, amyloid beta (Aβ40) (Homo sapiens, UniProt P05067)
T1 construct: gene APP; Aβ40 peptide (40 amino acids)
Experiment: ThT fluorescence fibrillization assay with purified Aβ[…]), end-point confirmed by TEM
Format: biochemical

T1 sequence (P05067 672-711 limits assumed): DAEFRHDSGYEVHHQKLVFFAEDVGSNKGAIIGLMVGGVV

O=C(CCc1ccccc1)c1ccccc1 [Dihydrochalcone]
IC50: ~2460 nM
